Paper PMC12067741, “Inhibition of SOD1 trimerization is a novel drug target for ALS disease” (Translational Neurodegeneration, 2025)
pIC50: −log10 of the molar value. Like-named read-outs stand apart in the source and are kept apart here.

Experiments:
[1] = BBB-PAMPA (parallel artificial membrane permeability assay); conditions: PAMPA, 4 hour, 10 µM
Source text: Next, we checked the basic in vitro ADME test including pharmacokinetics, plasma protein binding, CYP (Cytochrome P450) inhibition, metabolic stability and blood–brain barrier (BBB) permeability. […] We also plan to test safety panel assay in the future to obtain safety data for the drug.
Fig. S8. […]

Plasma stability [2] = type: in vitro ADME; conditions: human plasma, after 120 min of incubation
human normal fibroblast = assay: Cell viability (MTT); type: cell-based; conditions: 48 hr
Protocol: (§1) Cells were incubated with 0.5 mg/mL of MTT solution (475989; Merck, Darmstadt, Germany) for 4 h at 37 °C. After removing excess solution and washing with PBS, the precipitated materials were dissolved in 200 μL DMSO and quantified by measuring absorbance at 540 nm.
(§2) Fig. S1. Optimized inhibitor reduces SOD1 aggregation. a, Mutant SOD1s induced WT-SOD1 aggregation. Testing the selected chemicals to check the inhibitory effect on SOD1 aggregation .HEK293 cells were transfected with MT-SOD1 vectors (A4V, G 93 A) and treated with selected chemicals ([…]). After incubation, transfected cells were harvested with TNNI buffer and fixed with 0.04% glutaraldehyde (Glu) for 30min. Samples were separated using SDS-PAGE. b-c, PRG-A-04 inhibited SOD1 inclusions in SK-N-SH cells. […] After incubation, cells were fixed with 4 % PFA and observed under the fluorescence microscope. (c) Cells with SOD1 inclusions (white arrows; strong intensity of SOD1) were counted by photomicrographs and the percentages were shown with standard deviation (SD). For cell counting, ten fluorescence images were randomly selected. […]
(§3) show cytotoxicity. To know the toxic effect of PRG-A-04 , human normal fibroblast (f) and neuron cells (g) were incubated with PRG -A-04 for 48 hr dose dependently and measured the viability through MTT assay .“Con” means Dimethyl sulfoxide (DMSO) -treated control . […]

SK-N-SH cells = assay: Cell viability (MTT); type: cell-based; conditions: neuron cell line, 48 hr
Protocol: as §1, §2, §3

CYP2C19 = CYP2C19 (Homo sapiens, UniProt P33261)
Source text: (§4) Fig. S8. Preclinical data of PRG-A-04 a Plasma protein binding b CYP inhibition(direct) […]
(§5) d Mouse Brain Tissue penetration
(§6) For the convenience of calculation, […]

CYP 2C9 = CYP 2C9 (Homo sapiens, UniProt P11712)
Source text: as §4, §5, §6

CYP 2B6 = CYP 2B6 (Homo sapiens, UniProt P20813)
Source text: as §4, §5, §6

CYP 2C8 = CYP 2C8 (Homo sapiens, UniProt P10632)
Source text: as §4, §5, §6

plasma proteins = system: plasma proteins
Source text: as §4, §5, §6

CYP 2D6 = CYP 2D6 (Homo sapiens, UniProt P10635)
Source text: as §4, §5, §6

[3] = system: MT-SOD1 recombinant protein; assay: In vitro oligomerization of recombinant GST-SOD1 (non-denaturing); type: biochemical; conditions: GST-SOD1 4 μg/mL, PRG-A-04 10 μmol/L, 30 min, room temperature
Protocol: For detecting the oligomerization assay promoted by mutant-type (MT)-SOD1 recombinant proteins in vitro, GST-SOD1 recombinant protein (4 μg/mL) was incubated with PRG-A-04 (10 μmol/L) for 30 min at room temperature in PBS and the samples were mixed with non-denaturing sample buffer. Those were separated in SDS-PAGE gel without boiling.

Plasma stability [4] = type: in vitro ADME; conditions: SD rat plasma, after 120 min of incubation
TDP-43 and WT-SOD1 = assay: WT-SOD1 and TDP-43 aggregation induced by ectopic TDP-43 expression in SK-N-SH cells; type: cell-based; conditions: TDP-43 overexpression
Source text: Cells with SOD1 inclusions (white arrows; strong intensity of SOD1) were counted and the percentages are shown with standard deviation. n = 3 independent experiments; two-tailed Student’s t-test. Scale bar, 10 μm. d, e PRG-A-04 reduced misfolding of MT-SOD1. d The affinity of misfolding-specific antibody to MT-SOD1 was inhibited by PRG-A-04. e Quantification of band intensity with Image J software. Mean ± SD. A.U., arbitrary units. *P < 0.05, **P < 0.01. f PRG-A-04 reduced the MT-SOD1 recombinant protein-induced increase of self-oligomerization in vitro. g WT-SOD1 and TDP-43 oligomerization induced by ectopic TDP-43 expression was abolished by PRG-A-04 treatment. h–k WT-SOD1 aggregation induced by ectopic TDP-43 expression was reduced by PRG-A-04 treatment. […] Scale bars, 10 μm. i PRG-A-04 reduced WT-SOD1 inclusions triggered by TDP-43 overexpression. Inclusion-positive cells (white arrows in h, strong intensity of SOD1) were counted and the percentages are shown as mean ± SD. j PRG-A-04 reduced the ratio of cells with cytoplasmic TDP-43 inclusions to tdtomato-positive ones. Cells with cytoplasmic TDP-43 (white arrows) among tdtomato positive ones were counted in randomly selected fields by photomicrographs and the cytosol/nucleus ratio was shown with ± SD. k PRG-A-04 reduced cytoplasmic TDP-43 inclusion. Mean ± SD. *P < 0.05, **P < 0.01, ***P < 0.005 […]

[5] = Metabolic stability in liver microsomes; type: in vitro ADME; conditions: human liver microsomes
CYP 3A = assay: CYP inhibition (direct)
Source text: as §4, §5, §6

Chain of CYP 2B6 (P20813 whole entry): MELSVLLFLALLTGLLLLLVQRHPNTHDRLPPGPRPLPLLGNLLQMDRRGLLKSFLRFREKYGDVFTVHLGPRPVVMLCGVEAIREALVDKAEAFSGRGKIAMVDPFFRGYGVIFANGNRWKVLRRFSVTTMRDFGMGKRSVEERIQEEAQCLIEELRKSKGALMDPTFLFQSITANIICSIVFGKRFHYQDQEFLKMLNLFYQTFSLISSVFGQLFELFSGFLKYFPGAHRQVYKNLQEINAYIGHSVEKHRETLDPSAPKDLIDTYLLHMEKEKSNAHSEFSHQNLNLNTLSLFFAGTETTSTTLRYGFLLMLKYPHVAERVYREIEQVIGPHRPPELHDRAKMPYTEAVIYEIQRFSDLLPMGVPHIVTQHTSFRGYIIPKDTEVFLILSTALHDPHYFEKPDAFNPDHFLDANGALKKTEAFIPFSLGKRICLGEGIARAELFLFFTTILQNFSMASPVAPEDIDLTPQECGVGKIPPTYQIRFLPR
Chain of CYP 2C8 (P10632 whole entry): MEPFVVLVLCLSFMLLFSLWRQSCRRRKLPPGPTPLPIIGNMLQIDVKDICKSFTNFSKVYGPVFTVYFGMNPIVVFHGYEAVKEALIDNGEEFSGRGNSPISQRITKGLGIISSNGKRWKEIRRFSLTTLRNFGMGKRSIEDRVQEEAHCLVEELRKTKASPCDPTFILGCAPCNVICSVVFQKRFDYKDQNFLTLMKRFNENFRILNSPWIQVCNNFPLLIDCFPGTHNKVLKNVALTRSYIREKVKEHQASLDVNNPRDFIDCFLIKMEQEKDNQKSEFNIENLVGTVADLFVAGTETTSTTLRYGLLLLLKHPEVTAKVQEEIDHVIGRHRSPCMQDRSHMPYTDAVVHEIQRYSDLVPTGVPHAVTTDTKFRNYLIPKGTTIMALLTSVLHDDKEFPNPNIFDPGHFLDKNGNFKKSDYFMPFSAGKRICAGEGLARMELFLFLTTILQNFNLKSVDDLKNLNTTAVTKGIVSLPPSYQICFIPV
Chain of CYP2C19 (P33261 whole entry): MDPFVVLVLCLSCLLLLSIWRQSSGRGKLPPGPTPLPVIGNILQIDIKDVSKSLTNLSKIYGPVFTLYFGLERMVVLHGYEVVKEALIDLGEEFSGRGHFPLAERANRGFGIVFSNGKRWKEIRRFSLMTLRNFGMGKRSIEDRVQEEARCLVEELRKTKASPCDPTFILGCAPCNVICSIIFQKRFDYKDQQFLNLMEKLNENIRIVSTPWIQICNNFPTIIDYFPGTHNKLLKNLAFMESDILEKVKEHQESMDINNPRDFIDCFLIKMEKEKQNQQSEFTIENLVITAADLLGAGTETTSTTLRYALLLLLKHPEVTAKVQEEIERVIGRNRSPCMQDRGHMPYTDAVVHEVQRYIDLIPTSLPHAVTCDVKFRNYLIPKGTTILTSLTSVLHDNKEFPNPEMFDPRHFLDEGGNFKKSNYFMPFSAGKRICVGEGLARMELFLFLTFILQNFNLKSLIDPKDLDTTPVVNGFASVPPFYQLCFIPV
Chain of CYP 2D6 (P10635 whole entry): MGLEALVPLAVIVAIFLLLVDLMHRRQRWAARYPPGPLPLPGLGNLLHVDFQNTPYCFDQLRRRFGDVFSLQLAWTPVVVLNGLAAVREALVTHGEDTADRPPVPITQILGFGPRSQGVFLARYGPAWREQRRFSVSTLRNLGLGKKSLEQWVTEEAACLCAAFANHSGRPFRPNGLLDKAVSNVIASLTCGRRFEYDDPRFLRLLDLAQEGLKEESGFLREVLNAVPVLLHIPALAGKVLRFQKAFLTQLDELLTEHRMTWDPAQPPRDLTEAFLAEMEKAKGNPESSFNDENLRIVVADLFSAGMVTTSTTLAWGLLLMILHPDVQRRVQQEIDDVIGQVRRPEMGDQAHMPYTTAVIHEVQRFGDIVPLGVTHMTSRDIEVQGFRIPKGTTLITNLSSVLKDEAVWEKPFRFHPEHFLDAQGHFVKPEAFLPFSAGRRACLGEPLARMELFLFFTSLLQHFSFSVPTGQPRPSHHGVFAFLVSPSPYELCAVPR
Chain of CYP 2C9 (P11712 whole entry): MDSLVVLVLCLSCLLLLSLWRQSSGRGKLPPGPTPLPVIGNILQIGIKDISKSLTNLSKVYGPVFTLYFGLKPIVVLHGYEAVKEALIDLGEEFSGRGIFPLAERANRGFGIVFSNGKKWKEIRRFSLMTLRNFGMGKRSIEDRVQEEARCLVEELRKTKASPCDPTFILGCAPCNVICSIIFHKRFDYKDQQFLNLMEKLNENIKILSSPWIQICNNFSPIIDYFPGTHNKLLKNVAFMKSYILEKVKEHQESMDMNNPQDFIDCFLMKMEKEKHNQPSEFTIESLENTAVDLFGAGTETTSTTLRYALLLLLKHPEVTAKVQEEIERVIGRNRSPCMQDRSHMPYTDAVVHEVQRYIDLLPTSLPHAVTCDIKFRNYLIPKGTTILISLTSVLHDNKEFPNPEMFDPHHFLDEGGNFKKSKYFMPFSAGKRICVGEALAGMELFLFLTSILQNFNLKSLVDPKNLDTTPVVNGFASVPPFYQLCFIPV

In the case of COc1cc(C=CCOC2Cc3cc4ccc(=O)oc4cc3OC2(C)C)ccc1[N+](=O)[O-] (stereo not shown) [PRG-A-04], the “Mean Pe” value [1] was 0.418 ×10⁻⁶ cm/s, the “stability in plasma” value (Plasma stability [2]) was “stable” and the “cytotoxicity” value (human normal fibroblast) was “without severe cytotoxicity”. For the same compound, the “cytotoxicity” value (SK-N-SH cells) was “without severe cytotoxicity”, the pIC50 (CYP2C19) was 5.32 and the pIC50 (CYP 2C9) was under 5.00. For the same compound, the pIC50 (CYP 2B6) was under 5.00, the pIC50 (CYP 2C8) was under 5.00 and the “% Bound” value (plasma proteins; Dog plasma, concentration 0.2 uM) was over 99.93%. For the same compound, the “% Bound” value (plasma proteins; Dog plasma, concentration 2 uM) was 99.95%, the “% Bound” value (plasma proteins; Dog plasma, concentration 10 uM) was 99.92% and the “% Bound” value (plasma proteins; Human plasma, concentration 0.2 uM) was over 99.92%. The “% Bound” value (plasma proteins; Human plasma, concentration 2 uM) was 99.97%, the “% Bound” value (plasma proteins; Human plasma, concentration 10 uM) was 99.97% and the “% Bound” value (plasma proteins; Monkey plasma, concentration 0.2 uM) was over 99.94%. For the same compound, the “% Bound” value (plasma proteins; Monkey plasma, concentration 2 uM) was 99.93%, the “% Bound” value (plasma proteins; Monkey plasma, concentration 10 uM) was 99.89% and the “% Bound” value (plasma proteins; Mouse plasma, concentration 0.2 uM) was 99.91%. The “% Bound” value (plasma proteins; Mouse plasma, concentration 2 uM) was 99.92%, the “% Bound” value (plasma proteins; Mouse plasma, concentration 10 uM) was 99.87% and the “% Bound” value (plasma proteins; Rat plasma, concentration 0.2 uM) was 99.9%. The “% Bound” value (plasma proteins; Rat plasma, concentration 2 uM) was 99.91%, the “% Bound” value (plasma proteins; Rat plasma, concentration 10 uM) was 99.86% and the pIC50 (CYP 2D6) was under 5.00. The “effect on oligomerization of recombinant MT-SOD1 in vitro” value [3] was “inhibited the oligomerizing or aggregation property of MT-SOD1”, the “stability in plasma” value (Plasma stability [4]) was “stable” and the “cytosolic mislocalization of TDP-43” value (TDP-43 and WT-SOD1) was “significantly reduced”. The “effect on TDP-43 and SOD1 aggregation” value (TDP-43 and WT-SOD1) was “inhibitory effect on TDP-43 and SOD1 aggregation”, the “extent of metabolism in liver microsomes” value [5] was “moderately metabolized” and the pIC50 (CYP 3A) was under 5.00. For the same compound, the pIC50 (CYP 3A; read-out: IC50, DI, CYP 3A(midazolam), direct inhibition) was under 5.00.
